The values that follow come from US11840528B2 (Hoffmann-La Roche Inc., priority 2018, dated 2023).

Assay [1] has as its target T1, h-GABA-A α5β3γ2 (Homo sapiens, UniProt P18507+P31644). The experiment in a line: Two-electrode voltage clamp electrophysiology in Xenopus laevis oocytes expressing GABAA receptors, modulation of GABA EC20 current. It counts as cell-based. Set-up: host or cells: Xenopus laevis oocytes micro-injected with RNA transcripts of the subunits. A digest of the protocol:
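Modulation is reported as % of the GABA EC20 current, calculated as 100*(Fold increase−1) from the peak ratio between a second GABA response carrying compound (applied at roughly 30-fold Ki) and a preceding control response. Oocytes expressing human α5β3γ2 were clamped at −80 mV at room temperature, 3–5 days after injection.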
For orientation: Two-electrode voltage clamp holds a large cell at a set potential and records current.

Assay [2] has as its target T1, h-GABA-A α5β3γ2. As to the kind of experiment: [3H]flumazenil competition binding assay, membranes of HEK293 cells expressing GABAA receptors. Summed up:
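Receptor source: human α5β3γ2 transiently transfected into HEK293 cells, membranes in pH 7.5 Krebs-tris. Filtration through GF/C, then scintillation counting.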

[3] abbreviates: % modulation of GABA EC20 = 100*(Fold increase-1), Table 1.
[4] abbreviates: test compound at approx. 30 fold its Ki, GABA at EC20, Table 1.
Setting [5] is: displacement of [3H]-Flumazenil 0.5 nM, HEK293 cells expressing human receptors, mean of two determinations, Table 1.

What is called Ki is the equilibrium dissociation constant of an inhibitor or competing ligand from its target. Read a high Ki as lower affinity.

In the case of `Cc1ccc(-c2noc(C(F)F)c2Cn2ncc(N3C[C@@H](C)O[C@@H](C)C3)cc2=O)cn1` [Example 182, 2-((5-(Difluoromethyl)-3-(6-methylpyridin-3-yl)isoxazol-4-yl)methyl)-5-((2S,6R)-2,6-dimethylmorpholino)pyridazin-3(2H)-one], the “Efficacy (GABA) %” value in assay [1] (setting [3]) worked out at 209%. Besides, the “Fold increase h-GABA-A α5β3γ2 oocyte” value in assay [1] (setting [4]) was determined as 3.09. Further, the affinity in assay [2] (setting [5]), expressed as Ki, was 18.9 nM.

Take `Cc1ccc(-c2noc(C)c2Cn2ncc(N3CC4(CC(C)CO4)C3)cc2=O)nn1` (single isomer, unassigned) [Example 241, 2-[[5-methyl-3-(6-methylpyridazin-3-yl)isoxazol-4-yl]methyl]-5-[(7S)-7-methyl-5-oxa-2-azaspiro[3.4]octan-2-yl]pyridazin-3-one or enantiomer]: in assay [1] (setting [3]), the “Efficacy (GABA) %” value amounted to 80%. Also, the “Fold increase h-GABA-A α5β3γ2 oocyte” value in assay [1] (setting [4]) is recorded as 1.8. The inhibitory constant (Ki) in assay [2] (setting [5]) was 5.4 nM.

Take `Cc1ccc(-c2noc(C)c2Cn2ncc(N3CC(OC4(C)CC4)C3)cc2=O)nn1` [Example 305, 5-[3-(1-methylcyclopropoxy)azetidin-1-yl]-2-[[5-methyl-3-(6-methylpyridazin-3-yl)isoxazol-4-yl]methyl]pyridazin-3-one]: in assay [1] (setting [3]), the “Efficacy (GABA) %” value amounted to 100%. Moreover, the “Fold increase h-GABA-A α5β3γ2 oocyte” value in assay [1] (setting [4]) was 2. In assay [2] (setting [5]), this molecule had a Ki of 2.5 nM.

`Cc1ccc(-c2noc(C)c2Cn2ncc(-c3cc(C)nc(C)c3)cc2=O)cn1` [Example 192, 5-(2,6-dimethylpyridin-4-yl)-2-((5-methyl-3-(6-methylpyridin-3-yl)isoxazol-4-yl)methyl)pyridazin-3(2H)-one]: in assay [1] (setting [3]), the “Efficacy (GABA) %” value turned out to be 221%. Moreover, the “Fold increase h-GABA-A α5β3γ2 oocyte” value in assay [1] (setting [4]) was 3.21. In assay [2] (setting [5]), this molecule displayed a Ki of 6.4 nM.

In the case of `Cc1ccc(-c2noc(C)c2Cn2ncc(N3CCC(c4ccnn4C)CC3)cc2=O)cn1` [Example 166, 2-[[5-methyl-3-(6-methyl-3-pyridyl)isoxazol-4-yl]methyl]-5-[4-(2-methylpyrazol-3-yl)-1-piperidyl]pyridazin-3-one], the “Efficacy (GABA) %” value in assay [1] (setting [3]) was 149%. Besides, the “Fold increase h-GABA-A α5β3γ2 oocyte” value in assay [1] (setting [4]) came out at 2.49. For the same molecule, in assay [2] (setting [5]), the Ki was 1.7 nM.

With `Cc1onc(-c2ccccc2)c1COc1ccc(C(=O)N2CCOCC2)nn1` [RO-096, reference compound], in assay [1] (reference compounds, % modulation of GABA EC20, Table 2), the “Efficacy (GABA) %” value is reported as −16%. In addition, the “Fold increase h-GABA-A α5β3γ2 oocyte” value in assay [1] (reference compounds, Table 2) is recorded as 0.84. The same molecule came in with a Ki in assay [2] (reference compounds, Table 2) of 26 nM.

Regarding `Cc1onc(-c2ccc(Cl)nc2)c1Cn1ncc(N2CC3(CCC(C(F)(F)F)CO3)C2)cc1=O` (single isomer, unassigned) [Example 323], in assay [1] (setting [3]), the “Efficacy (GABA) %” value was found to be 76%. Moreover, the “Fold increase h-GABA-A α5β3γ2 oocyte” value in assay [1] (setting [4]) was 1.76. For the same molecule, the Ki in assay [2] (setting [5]) was 43.1 nM.

Take `Cc1ccc(-c2noc(C)c2Cn2ncc(N3CC(C)(O)C3)cc2=O)cn1` [Example 98, 5-(3-hydroxy-3-methyl-azetidin-1-yl)-2-[[5-methyl-3-(6-methyl-3-pyridyl)isoxazol-4-yl]methyl]pyridazin-3-one]: the “Efficacy (GABA) %” value in assay [1] (setting [3]) worked out at 132%. Moreover, the “Fold increase h-GABA-A α5β3γ2 oocyte” value in assay [1] (setting [4]) came to 2.32. In assay [2] (setting [5]), this molecule came in with a Ki of 7.3 nM.

With `Cc1ccc(-c2noc(C)c2Cn2ncc(-c3cnn(CC(F)F)c3)cc2=O)cn1` [Example 153, 5-(1-(2,2-difluoroethyl)-1H-pyrazol-4-yl)-2-((5-methyl-3-(6-methylpyridin-3-yl)isoxazol-4-yl)methyl)pyridazin-3(2H)-one], in assay [1] (setting [3]), the “Efficacy (GABA) %” value is 166%. In addition, the “Fold increase h-GABA-A α5β3γ2 oocyte” value in assay [1] (setting [4]) was 2.66. In assay [2] (setting [5]), the affinity, expressed as Ki, was 24.2 nM.

As to `Cc1ccc(-c2noc(C)c2Cn2ncc(N3CC4(C[C@H](OC(F)F)CO4)C3)cc2=O)nn1` [Example 246, 5-[(7S)-7-(difluoromethoxy)-5-oxa-2-azaspiro[3.4]octan-2-yl]-2-[[5-methyl-3-(6-methylpyridazin-3-yl)isoxazol-4-yl]methyl]pyridazin-3-one], in assay [1] (setting [3]), the “Efficacy (GABA) %” value was determined as 130%. The “Fold increase h-GABA-A α5β3γ2 oocyte” value in assay [1] (setting [4]) was found to be 2.3. The same molecule gave a Ki in assay [2] (setting [5]) of 3.4 nM.

Consider `Cc1ccc(-c2noc(C)c2Cn2ncc(N3CC4(CCC(F)CO4)C3)cc2=O)nn1` (single isomer, unassigned) [Example 319], for which the “Efficacy (GABA) %” value in assay [1] (setting [3]) turned out to be 91%. Also, the “Fold increase h-GABA-A α5β3γ2 oocyte” value in assay [1] (setting [4]) is 1.91. The molecule further came in with a Ki in assay [2] (setting [5]) of 1 nM.

Take `Cc1ccc(-c2noc(C)c2Cn2ncc(N3CC4(C[C@H](F)CO4)C3)cc2=O)cn1` [Example 201, 5-[(7S)-7-fluoro-5-oxa-2-azaspiro[3.4]octan-2-yl]-2-[[5-methyl-3-(6-methyl-3-pyridyl)isoxazol-4-yl]methyl]pyridazin-3-one]: in assay [1] (setting [3]), the “Efficacy (GABA) %” value is reported as 93%. The “Fold increase h-GABA-A α5β3γ2 oocyte” value in assay [1] (setting [4]) is listed as 1.93. The same molecule came in with a Ki in assay [2] (setting [5]) of 14.3 nM.

With `Cc1ccc(-c2noc(C)c2Cn2ncc(N3CC4(CC(C(F)(F)F)CCO4)C3)cc2=O)nn1` (single isomer, unassigned) [Example 311], the “Efficacy (GABA) %” value in assay [1] (setting [3]) stood at 88%. For the same molecule, the “Fold increase h-GABA-A α5β3γ2 oocyte” value in assay [1] (setting [4]) stood at 1.88. Also, the affinity in assay [2] (setting [5]), expressed as Ki, was 2.4 nM.

As to `Cc1onc(-c2ccc(C(F)(F)F)nc2)c1Cn1ncc(N2C[C@@H](C)O[C@@H](C)C2)cc1=O` [Example 39, 5-(cis-2,6-dimethylmorpholin-4-yl)-2-[[5-methyl-3-[6-(trifluoromethyl)-3-pyridyl]isoxazol-4-yl]methyl]pyridazin-3-one], in assay [1] (setting [3]), the “Efficacy (GABA) %” value was found to be 198%. Also, in assay [1] (setting [4]), the “Fold increase h-GABA-A α5β3γ2 oocyte” value came to 2.98. In assay [2] (setting [5]), the Ki worked out at 3.2 nM.

On to `CCn1cc(-c2cnn(Cc3c(-c4ccc(C)nc4)noc3C)c(=O)c2)cn1` [Example 155, 5-(1-ethyl-1H-pyrazol-4-yl)-2-((5-methyl-3-(6-methylpyridin-3-yl)isoxazol-4-yl)methyl)pyridazin-3(2H)-one], for which the “Efficacy (GABA) %” value in assay [1] (setting [3]) is on record as 133%. Besides, the “Fold increase h-GABA-A α5β3γ2 oocyte” value in assay [1] (setting [4]) came to 2.33. This molecule had a Ki in assay [2] (setting [5]) of 21.6 nM.

`Cc1ccc(-c2noc(C)c2Cn2ncc(N3C[C@@H](C)O[C@H](C)C3)cc2=O)cn1` (single isomer, unassigned) [Example 30, 5-[(2R,6R)-2,6-dimethylmorpholin-4-yl]-2-[[5-methyl-3-(6-methyl-3-pyridyl)isoxazol-4-yl]methyl]pyridazin-3-one or enantiomer]: in assay [1] (setting [3]), the “Efficacy (GABA) %” value turned out to be 216%. In assay [1] (setting [4]), the “Fold increase h-GABA-A α5β3γ2 oocyte” value was found to be 3.16. In assay [2] (setting [5]), this molecule gave a Ki of 0.5 nM.

On to `COC1CC2(C1)CN(c1cnn(Cc3c(-c4ccc(Cl)nc4)noc3C)c(=O)c1)C2` [Example 303], for which the “Efficacy (GABA) %” value in assay [1] (setting [3]) is 138%. Besides, the “Fold increase h-GABA-A α5β3γ2 oocyte” value in assay [1] (setting [4]) is listed as 2.38. Besides, affinity in assay [2] (setting [5]) was put at a Ki of 23.7 nM.

Take `Cc1ccc(-c2noc(C)c2Cn2ncc(N3CCN(C4CC4)CC3)cc2=O)cn1` [Example 36, 5-(4-cyclopropylpiperazin-1-yl)-2-[[5-methyl-3-(6-methyl-3-pyridyl)isoxazol-4-yl]methyl]pyridazin-3-one]: the “Efficacy (GABA) %” value in assay [1] (setting [3]) amounted to 145%. The “Fold increase h-GABA-A α5β3γ2 oocyte” value in assay [1] (setting [4]) worked out at 2.45. This molecule also returned a Ki in assay [2] (setting [5]) of 13.8 nM.

For the molecule `Cc1cc(-c2noc(C)c2Cn2ncc(N3CCN(C4CC4)CC3)cc2=O)no1` [Example 63, 5-(4-cyclopropylpiperazin-1-yl)-2-[[5-methyl-3-(5-methylisoxazol-3-yl)isoxazol-4-yl]methyl]pyridazin-3-one], the “Efficacy (GABA) %” value in assay [1] (setting [3]) worked out at 41%. In addition, the “Fold increase h-GABA-A α5β3γ2 oocyte” value in assay [1] (setting [4]) stood at 1.41. Moreover, the affinity in assay [2] (setting [5]), expressed as Ki, was 5.9 nM.

Regarding `CCOC1CN(c2cnn(Cc3c(-c4ccc(C)nc4)noc3C)c(=O)c2Cl)C1` [Example 268, 4-chloro-5-(3-ethoxyazetidin-1-yl)-2-((5-methyl-3-(6-methylpyridin-3-yl)isoxazol-4-yl)methyl)pyridazin-3(2H)-one], the “Efficacy (GABA) %” value in assay [1] (setting [3]) came out at 184%. In addition, the “Fold increase h-GABA-A α5β3γ2 oocyte” value in assay [1] (setting [4]) came to 2.84. Also, the Ki in assay [2] (setting [5]) came out at 16.6 nM.

For `Cc1ccc(-c2noc(C)c2Cn2ncc(-c3cncc(Cl)c3)cc2=O)cn1` [Example 148, 5-(5-chloro-3-pyridyl)-2-((5-methyl-3-(6-methyl-3-pyridyl)isoxazol-4-yl)methyl)pyridazin-3-one], in assay [1] (setting [3]), the “Efficacy (GABA) %” value came out at 248%. Moreover, the “Fold increase h-GABA-A α5β3γ2 oocyte” value in assay [1] (setting [4]) is recorded as 3.48. In assay [2] (setting [5]), this molecule returned a Ki of 8.4 nM.

With `COC1CN(c2cnn(Cc3c(-c4cc(C)on4)noc3C)c(=O)c2)C1` [Example 140, 5-(3-methoxyazetidin-1-yl)-2-[[5-methyl-3-(5-methylisoxazol-3-yl)isoxazol-4-yl]methyl]pyridazin-3-one], the “Efficacy (GABA) %” value in assay [1] (setting [3]) is listed as 62%. Further, the “Fold increase h-GABA-A α5β3γ2 oocyte” value in assay [1] (setting [4]) is given as 1.62. In assay [2] (setting [5]), the inhibition constant (Ki) amounted to 8.5 nM.

On to `COc1ncccc1N1CCN(c2cnn(Cc3c(-c4ccc(C)nc4)noc3C)c(=O)c2)CC1` [Example 101, 5-[4-(2-methoxy-3-pyridyl)piperazin-1-yl]-2-[[5-methyl-3-(6-methyl-3-pyridyl)isoxazol-4-yl]methyl]pyridazin-3-one], for which the “Efficacy (GABA) %” value in assay [1] (setting [3]) was 146%. In assay [1] (setting [4]), the “Fold increase h-GABA-A α5β3γ2 oocyte” value is 2.46. Besides, the Ki in assay [2] (setting [5]) was 3.2 nM.

Turning to `Cc1ccc(-c2noc(C)c2Cn2ncc(N(C)C3CN(C4CC4)C3)cc2=O)cn1` [Example 137, 5-((1-cyclopropylazetidin-3-yl)(methyl)amino)-2-((5-methyl-3-(6-methylpyridin-3-yl)isoxazol-4-yl)methyl)pyridazin-3(2H)-one], the “Efficacy (GABA) %” value in assay [1] (setting [3]) came to 110%. The “Fold increase h-GABA-A α5β3γ2 oocyte” value in assay [1] (setting [4]) amounted to 2.1. Besides, in assay [2] (setting [5]), the Ki came to 22.9 nM.
